Measurements as given in DBAASP.
Values after ≈ are worked out from the molar mass of the structure shown. One block for each molecule: values may come before it.

Legend:
Test in all cases: ≥ marks a high value that may be exact or a test limit, other limits are often not marked, values filed in µg/mL are converted to µM
[1] = tested on: Staphylococcus aureus MTCC 9542
Vibrio cholerae = tested on: Vibrio cholerae
Escherichia coli MG1655 = tested on: Escherichia coli MG1655
[2] = tested on: Pseudomonas aeruginosa ATCC 27853
[3] = tested on: Staphylococcus aureus BCRC 10780
[4] = tested on: Streptococcus pneumoniae BCRC 10794
[5] = tested on: Xanthomonas axonopodis pv. glycines ISBF 327
[6] = tested on: Escherichia coli ATCC 25922
[7] = tested on: Cronobacter sakazakii DPC 6440
[8] = tested on: Listeria monocytogenes LO28
[9] = tested on: Salmonella enterica subsp. enterica serovar Typhi DMST 22842
[10] = tested on: Staphylococcus aureus ATCC 25923
[11] = tested on: Staphylococcus epidermidis ATCC 12228
Escherichia coli BL21AI = tested on: Escherichia coli BL21AI
[12] = tested on: Micrococcus luteus ATCC 10240
[13] = tested on: Escherichia coli NCIMB 11843
[14] = tested on: Salmonella enterica subsp. enterica serovar Typhimurium LT2
[15] = tested on: Cronobacter muytjensii ATCC 51329
[16] = tested on: Staphylococcus aureus RN4220
[17] = tested on: Staphylococcus aureus SA113
[18] = tested on: Cronobacter sakazakii DSM 4485
[19] = tested on: Staphylococcus aureus NCTC 8325-4
[20] = tested on: Pseudomonas fluorescens NCIMB 9046
[21] = tested on: Staphylococcus aureus Newman
[22] = tested on: Cronobacter sakazakii ATCC BAA-894
[23] = tested on: Staphylococcus aureus RF122
[24] = tested on: Klebsiella pneumoniae NCIMB 13218

MIC [9]: ≥ 33.3 µM
MIC [10]: > 33.3 µM
MIC [11]: 33.3 µM (≈ 91 µg/mL)
MIC [6]: > 33.3 µM
SMILES: CC(C)[C@H](NC(=O)CNC(=O)[C@@H](N)CC(N)=O)C(=O)N[C@@H](CCC(N)=O)C(=O)N1CCC[C@H]1C(=O)N[C@@H](CCCCN)C(=O)N[C@@H](Cc1ccc(O)cc1)C(=O)N[C@@H](CCCN=C(N)N)C(=O)N[C@@H](Cc1c[nH]c2ccccc12)C(=O)N[C@@H](Cc1c[nH]c2ccccc12)C(=O)N[C@@H](CCCN=C(N)N)C(=O)N[C@@H](Cc1c[nH]c2ccccc12)C(=O)N[C@@H](Cc1c[nH]c2ccccc12)C(=O)N[C@@H](CCCN=C(N)N)C(=O)N[C@@H](CCCN=C(N)N)C(=O)N[C@@H](Cc1c[nH]c2ccccc12)C(=O)N[C@@H](Cc1c[nH]c2ccccc12)C(=O)N[C@@H](Cc1c[nH]c2ccccc12)C(=O)O [NGVQPKYRWWRWWRRWWW]

MIC (Escherichia coli BL21AI): 25.7 µM (≈ 64 µg/mL)
MIC [12]: 12.9 µM (≈ 32 µg/mL)
SMILES: CC[C@H](C)[C@H](NC(=O)[C@H](CCCN=C(N)N)NC(=O)[C@H](CCCN=C(N)N)NC(=O)[C@@H]1CCCN1C(=O)[C@@H]1CCCN1C(=O)[C@H](Cc1cnc[nH]1)NC(=O)[C@@H]1CCCN1C(=O)[C@H](CCCN=C(N)N)NC(=O)[C@@H]1CCCN1C(=O)[C@H](CC(C)C)NC(=O)[C@H](Cc1ccc(O)cc1)NC(=O)[C@@H]1CCCN1C(=O)[C@@H]1CCCN1C(=O)[C@H](CCCCN)NC(=O)[C@H](CC(=O)O)NC(=O)[C@@H](N)C(C)C)C(=O)N[C@@H](Cc1ccc(O)cc1)C(=O)N[C@@H](CC(N)=O)C(=O)N[C@@H](CC(N)=O)C(=O)N[C@@H](CCCN=C(N)N)C(=O)O [VDKPPYLPRPHPPRRIYNNR]

MIC [13]: ≥ 2500 µM
MIC [14]: ≥ 1250 µM
MIC [15]: ≥ 625 µM
MIC [16]: ≥ 1250 µM
MIC [17]: ≥ 1250 µM
MIC [7]: ≥ 625 µM
MIC [18]: ≥ 1250 µM
MIC [19]: ≥ 1250 µM
MIC [20]: ≥ 2500 µM
MIC [21]: ≥ 1250 µM
MIC [22]: ≥ 1250 µM
MIC [23]: ≥ 1250 µM
MIC [24]: ≥ 2500 µM
MIC [2]: 32 µM (≈ 29.7 µg/mL)
SMILES: CC(C)C[C@H](NC(=O)[C@H](C)NC(=O)[C@H](CCC(=O)O)NC(=O)[C@H](CC(N)=O)NC(=O)[C@H](CC(C)C)NC(=O)[C@@H](N)C(C)C)C(=O)N[C@@H](CC(C)C)C(=O)N[C@@H](CCCN=C(N)N)C(=O)O [VLNEALLR]

MIC [13]: ≥ 2500 µM
MIC [14]: ≥ 1250 µM
MIC [15]: ≥ 2500 µM
MIC [16]: ≥ 1250 µM
MIC [17]: ≥ 1250 µM
MIC [7]: ≥ 2500 µM
MIC [18]: ≥ 2500 µM
MIC [19]: ≥ 1250 µM
MIC [20]: ≥ 2500 µM
MIC [21]: ≥ 1250 µM
MIC [22]: ≥ 2500 µM
MIC [23]: ≥ 1250 µM
MIC [24]: ≥ 2500 µM
MIC [2]: 32 µM (≈ 28.3 µg/mL)
SMILES: CC(C)C[C@H](NC(=O)[C@H](CC(C)C)NC(=O)[C@H](CC(N)=O)NC(=O)[C@H](CCC(=O)O)NC(=O)[C@H](CC(N)=O)NC(=O)[C@H](CC(C)C)NC(=O)[C@@H](N)C(C)C)C(=O)N[C@@H](C)C(=O)O [VLNENLLA]

MIC [7]: ≥ 312 µM
MIC [8]: ≥ 78.1 µM
SMILES: CC[C@H](C)[C@H](NC(=O)[C@H](Cc1c[nH]c2ccccc12)NC(=O)[C@@H]1CCCN1C(=O)[C@H](CCCCN)NC(=O)[C@H](CCSC)NC(=O)[C@H](C)NC(=O)[C@H](CCCCN)NC(=O)[C@H](CCC(N)=O)NC(=O)[C@H](Cc1cnc[nH]1)NC(=O)[C@H](CCC(N)=O)NC(=O)[C@H](Cc1ccc(O)cc1)NC(=O)[C@@H](N)C(C)C)C(=O)N[C@@H](CCC(N)=O)C(=O)N1CCC[C@H]1C(=O)N[C@@H](CCCCN)C(=O)N[C@H](C(=O)N[C@@H](CCCCN)C(=O)N[C@H](C(=O)N[C@H](C(=O)N1CCC[C@H]1C(=O)N[C@@H](Cc1ccc(O)cc1)C(=O)N[C@H](C(=O)N[C@@H](CCCN=C(N)N)C(=O)N[C@@H](Cc1ccc(O)cc1)C(=O)N[C@@H](CC(C)C)C(=O)O)C(C)C)[C@@H](C)CC)C(C)C)[C@@H](C)O [VYQHQKAMKPWIQPKTKVIPYVRYL]

The remaining lines, values behind:

SMILES: CC[C@H](C)[C@@H]1NC(=O)[C@H](CCCCN)NC(=O)[C@@H](NC(=O)[C@H](CC(C)C)NC(=O)[C@@H](NC(=O)[C@H](CCC(N)=O)NC(=O)[C@@H]2CCCN2C(=O)[C@H](CC(C)C)NC(=O)[C@H](Cc2ccccc2)NC(=O)[C@H](CC(N)=O)NC(=O)[C@H](C)NC(=O)[C@H](C)NC(=O)[C@H](CC(C)C)NC(=O)CNC(=O)[C@H](C)N)[C@@H](C)CC)CSSC[C@@H](C(N)=O)NC(=O)[C@H](CCCCN)NC(=O)[C@H](CCCN=C(N)N)NC(=O)[C@H](C)NC1=O [AGLAANFLPQILCKIARKC]
MIC [1]: 24.6 µM (≈ 49.9 µg/mL)
MIC (Vibrio cholerae): 12.3 µM (≈ 25 µg/mL)
MIC (Escherichia coli MG1655): 24.6 µM (≈ 49.9 µg/mL)
MIC [2]: > 49.2 µM

SMILES: CSCC[C@H](NC(=O)[C@H](C)NC(=O)CNC(=O)[C@H](C)NC(=O)[C@H](Cc1cnc[nH]1)NC(=O)[C@H](Cc1ccccc1)NC(C)=O)C(N)=O [FHAGAM]
MIC [3]: ≥ 158 µM
MIC [4]: ≥ 158 µM

SMILES: CC[C@H](C)[C@H](NC(=O)[C@H](CCCN=C(N)N)NC(=O)[C@H](CCCCN)NC(=O)[C@H](CC(C)C)NC(=O)[C@H](CO)NC(=O)[C@@H](NC(=O)[C@@H](NC(=O)[C@H](CCCCN)NC(=O)[C@@H](NC(=O)CNC(=O)[C@@H](NC(=O)[C@H](CO)NC(=O)[C@H](CC(C)C)NC(=O)[C@H](Cc1ccccc1)NC(=O)[C@H](CCSC)NC(=O)[C@H](CCCCN)NC(=O)[C@H](CCCCN)NC(=O)[C@@H](NC(=O)[C@H](CCC(N)=O)NC(=O)[C@H](Cc1cnc[nH]1)NC(=O)[C@H](Cc1ccccc1)NC(=O)[C@H](CCCCN)NC(=O)CN)[C@@H](C)CC)C(C)C)C(C)C)C(C)C)[C@@H](C)O)C(=O)N[C@@H](CCC(N)=O)C(=O)N[C@@H](Cc1ccccc1)C(=O)NCC(=O)N[C@@H](CC(=O)O)C(=O)N[C@@H](Cc1ccccc1)C(N)=O [GKFHQIKKMFLSVGVKVTSLKRIQFGDF]
MIC [5]: 10 µM (≈ 32.4 µg/mL)
MIC [6]: 20 µM (≈ 64.8 µg/mL)
MIC [2]: 20 µM (≈ 64.8 µg/mL)

SMILES: CC[C@H](C)[C@H](NC(=O)[C@H](Cc1c[nH]c2ccccc12)NC(=O)[C@@H]1CCCN1C(=O)[C@H](CCCCN)NC(=O)[C@H](CCSC)NC(=O)[C@H](C)NC(=O)[C@@H](N)CCCCN)C(=O)N[C@@H](CCC(N)=O)C(=O)N1CCC[C@H]1C(=O)N[C@@H](CCCCN)C(=O)N[C@H](C(=O)N[C@@H](CCCCN)C(=O)N[C@H](C(=O)N[C@H](C(=O)N1CCC[C@H]1C(=O)N[C@@H](Cc1ccc(O)cc1)C(=O)N[C@H](C(=O)N[C@@H](CCCN=C(N)N)C(=O)N[C@@H](Cc1ccc(O)cc1)C(=O)N[C@@H](CC(C)C)C(=O)O)C(C)C)[C@@H](C)CC)C(C)C)[C@@H](C)O [KAMKPWIQPKTKVIPYVRYL]
MIC [7]: ≥ 39.1 µM
MIC [8]: ≥ 39.1 µM

SMILES: CC[C@H](C)[C@H](NC(=O)[C@H](CCSC)NC(=O)[C@H](CCCCN)NC(=O)CNC(=O)[C@H](C)NC(=O)[C@H](Cc1cnc[nH]1)NC(=O)[C@H](Cc1ccccc1)NC(=O)[C@H](CC(C)C)NC(=O)CNC(=O)[C@H](CCCCN)NC(C)=O)C(=O)N[C@@H](Cc1cnc[nH]1)C(N)=O [KGLFHAGKMIH]
MIC [3]: ≥ 80.7 µM
MIC [4]: ≥ 80.7 µM

SMILES: CC(C)[C@H](NC(=O)CNC(=O)[C@@H](N)CC(N)=O)C(=O)N[C@@H](CCC(N)=O)C(=O)N1CCC[C@H]1C(=O)N[C@@H](CCCCN)C(=O)N[C@@H](Cc1ccc(O)cc1)C(=O)N[C@@H](CCCCN)C(=O)N[C@@H](Cc1c[nH]c2ccccc12)C(=O)N[C@@H](Cc1c[nH]c2ccccc12)C(=O)N[C@@H](CCCCN)C(=O)N[C@@H](Cc1c[nH]c2ccccc12)C(=O)N[C@@H](Cc1c[nH]c2ccccc12)C(=O)N[C@@H](CCCCN)C(=O)N[C@@H](CCCCN)C(=O)N[C@@H](Cc1c[nH]c2ccccc12)C(=O)N[C@@H](Cc1c[nH]c2ccccc12)C(=O)N[C@@H](Cc1c[nH]c2ccccc12)C(N)=O [NGVQPKYKWWKWWKKWWW]
MIC [9]: 8.78 µM (≈ 23 µg/mL)
MIC [10]: > 34.7 µM
MIC [11]: 8.78 µM (≈ 23 µg/mL)
MIC [6]: 4.2 µM (≈ 11 µg/mL)
